Test [1] addresses recombinant human MetAP2 (Homo sapiens (Human), UniProt P50579). Briefly: recombinant human MetAP2 enzyme inhibition assay (MAS peptide / amino acid oxidase / Amplex UltraRed). To be noted: recombinant human MetAP2, 25 minutes at 25° C. It is filed as biochemical. The protocol:
Compounds are tested for their capacity to inhibit recombinant human MetAP2 activity using the following assay.
Flag tagged Human recombinant MetAP2 expressed and isolated for use as the enzyme source. 10 mM stock solutions of compounds were prepared in 100% DMSO and further diluted in 100% DMSO required concentration to 1 mM stocks. The stock compound solutions and DMSO vehicle controls were diluted to target final compound concentrations using assay buffer to a final concentration of 50 mM HEPES containing 100 mM NaCl, pH adjusted to 7.5. The MAS peptide was formulated to a 7.5 mM stock in distilled water and prior to use further diluted 1:4. […] 40 μl of enzyme was mixed with 100 μl of MnCl2 then further diluted in assay buffer to a final concentration of 16 μg/ml. To test for compound effect on MetAP2 enzyme activity, 5 μl of test compound, 10 μl of MAS substrate/amino acid oxidase mixture, 10 μl of MetAP2 was added to test wells in a 384 well black plate with blank wells containing no enzyme, replaced with 10 μl of assay buffer. All compounds were tested in duplicate on two occasions on the same day.
The plate was sealed with a TopSeal A cover and mixed briefly on an orbital mixer at 900 rpm. The plate was incubated for a further 25 minutes at 25° C. […] At the end of the MetAP2 incubation 25 μl Amplex/HRP mixture per well was added and the plate read plate on a plate reader.

The subject of test [2] is Diet Induced Obese (DIO) C57BL/6 mice. Briefly: 10 day DIO mouse model (body weight, food intake, hematology, blood chemistry). It is filed as in vivo. The text has this: The objective of this study design was to investigate the efficacy of disclosed compounds in a 10 day DIO mouse model. Effects on body weight, food intake, hematology and blood chemistry were the primary readouts of this study design. […] Mice were fed Research Diets D12492 (60% Kcal fat, 20% Kcal carbohydrate and 20% protein) and provided water ad libitum. DIO mice were received and housed in the facility for approximately two weeks prior to the start of test article administration. On Day −4 or −3, mice were randomized into study groups based on body weight and body weights were continued to be recorded daily for the duration of the study. Daily food intake was assessed starting on Study Day −2 by weighing of the food with hopper together to avoid loss of food in transfer.
(§1) Compounds were formulated into a 100% DMSO stock (at 9 mg/mL) prior to the start, and further diluted into the target working concentration using the vehicle of 10% DMSO in water. Prior to test article administration, starting on Day −3 a dosing acclimation occurred with all animals receiving a subcutaneous injection of vehicle (10% DMSO) only for 3 days. Starting on Day 1, test compounds or vehicle were administered based on individual body weight, subcutaneously, once a day for 10 days. All mice were sacrificed on Day 11, 24 hours following the final dosing on Day 10. After sacrifice, whole blood was collected and analyzed for hematology and blood chemistry parameters.
(§2) Compounds were tested vs. vehicle at various doses (1.0, 0.5, 0.3, 0.1, 0.03 mpk sc (mg per kg animal weight delivered subcutaneously), and the results are shown in Table 2 below.

The test system of test [3] is Sprague Dawley rats on 45% high fat diet. Kind of test: 11 day rat DIO model (body weight, food intake, hematology, blood chemistries). It counts as in vivo.
Text: The objective of this study design is to investigate the efficacy of disclosed compounds in an 11 day rat DIO model used to screen compounds for pharmacologic efficacy on endpoints related to obesity and metabolism. Effects on body weight, food intake, hematology and blood chemistries were the primary readouts of this study design. […] Rats were fed Research Diets D12451 (45% High Fat) and provided water ad libitum. Rats were received and housed in the facility for at least two or three weeks prior to start of test article administration. On Day −4 or −3, rats were randomized into study groups based on body weight and body weights were continued to be recorded daily for the duration of the study. Daily food intake was assessed starting on Study Day −2 by weighing the hopper including the food to avoid loss of food in transfer.
as §1, with “for 11” for “for 10”, “All animals” for “All mice”, “11, approximately 2” for “11, 24”, “Day 11.” for “Day 10.”
as §2

Test [4] relates to human fibrosarcoma cell line HT-1080. Kind of test: HT-1080 cell proliferation assay (CellTiter-Glo, 72 hours). It counts as cell-based. In general terms: ATP-based viability assays read luminescence as a measure of living cells.
Where [5] appears, read: HT-1080, 72 h, read-out: HT-1080 EC50 (nM).
Setting [6] is: HT-1080 cells, 72 hours incubation, CellTiter-Glo, read-out: HT-1080 EC50.

“And” between values parts separate entries of the source, which are not always exact repeats. Identical values can stand only once. Counter-ions that a name gives are not always drawn. Like-named read-outs stand apart in the source and are kept apart here.

Sequence of recombinant human MetAP2 (P50579 whole entry): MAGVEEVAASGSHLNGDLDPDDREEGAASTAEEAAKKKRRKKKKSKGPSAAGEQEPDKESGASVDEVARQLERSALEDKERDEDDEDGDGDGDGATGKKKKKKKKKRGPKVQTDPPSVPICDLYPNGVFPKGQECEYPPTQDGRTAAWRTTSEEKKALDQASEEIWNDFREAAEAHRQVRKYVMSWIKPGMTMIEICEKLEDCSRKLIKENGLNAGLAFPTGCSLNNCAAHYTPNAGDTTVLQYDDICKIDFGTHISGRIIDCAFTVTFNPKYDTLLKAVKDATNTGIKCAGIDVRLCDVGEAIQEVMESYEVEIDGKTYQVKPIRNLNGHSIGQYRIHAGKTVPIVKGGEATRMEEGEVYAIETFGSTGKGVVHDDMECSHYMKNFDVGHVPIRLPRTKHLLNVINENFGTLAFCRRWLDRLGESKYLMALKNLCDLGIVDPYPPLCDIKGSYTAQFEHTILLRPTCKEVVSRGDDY

On to `CO[C@@H]1[C@H](OC(=O)N2CC(CCCN3CCCC3)C2)CC[C@]2(CO2)[C@H]1[C@@]1(C)O[C@@H]1CC=C(C)C` [Example 59, (3R,4S,5S,6R)-5-methoxy-4-((2R,3R)-2-methyl-3-(3-methylbut-2-enyl)oxiran-2-yl)-1-oxaspiro[2.5]octan-6-yl 3-(3-(pyrrolidin-1-yl)propyl)azetidine-1-carboxylate formate], for which the IC50 (usually the concentration that gives 50% inhibition) in test [1] was < 50000 pM. The compound further showed a body weight loss vs vehicle at 0.3 mg/kg in test [2] (240 h, DIO mouse, 0.3 mpk sc once a day, 10 days) of 9.1%.
Take `CCN(CC)CCC1CCN1C(=O)O[C@@H]1CC[C@]2(CO2)[C@@H]([C@@]2(C)O[C@@H]2CC=C(C)C)[C@@H]1OC` (stereo partly drawn) [Example 106, (3R,4S,5S,6R)-5-methoxy-4-((2R,3R)-2-methyl-3-(3-methylbut-2-enyl)oxiran-2-yl)-1-oxaspiro[2.5]octan-6-yl 2-(2-(diethylamino)ethyl)azetidine-1-carboxylate]: the “DIO Mouse 10-day weight loss vs vehicle” value in test [2] (DIO mouse, 0.1 mpk sc once a day, 10 days) amounted to 2%. Besides, in test [3] (DIO rat, 0.5 mpk sc once a day, 11 days), the “DIO Rat 11-day weight loss vs vehicle” value was determined as 4.82%.
In the case of `CO[C@@H]1[C@H](OC(=O)N2CC(CCN3CC(C)(O)C3)C2)CC[C@]2(CO2)[C@H]1[C@@]1(C)O[C@@H]1CC=C(C)C` [Example 9, (3R,4S,5S,6R)-5-methoxy-4-((2R,3R)-2-methyl-3-(3-methylbut-2-enyl)oxiran-2-yl)-1-oxaspiro[2.5]octan-6-yl 3-(2-(3-hydroxy-3-methylazetidin-1-yl)ethyl)azetidine-1-carboxylate formate], the “DIO Mouse 10-day weight loss vs vehicle” value in test [2] (mouse, in vivo) is 7.4%. Moreover, the “DIO Rat 11-day weight loss vs vehicle” value in test [3] (rat, in vivo, formate) is 5.5% and 4.8%. Also, the EC50 (as a rule, the concentration at which the effect is half-maximal) in test [4] (setting [5]) was < 0.3 nM.
Consider `CNC(=O)OC1CN(C(=O)O[C@@H]2CC[C@]3(CO3)[C@@H]([C@@]3(C)O[C@@H]3CC=C(C)C)[C@@H]2OC)C1` [Example 74, (3R,4S,5S,6R)-5-methoxy-4-((2R,3R)-2-methyl-3-(3-methylbut-2-enyl)oxiran-2-yl)-1-oxaspiro[2.5]octan-6-yl 3-(methylcarbamoyloxy)azetidine-1-carboxylate], for which the EC50 in test [4] (setting [6]) is < 0.3 nM.
`CCN(CC)CCNC(=O)CCC1CN(C(=O)O[C@@H]2CC[C@]3(CO3)[C@@H]([C@@]3(C)O[C@@H]3CC=C(C)C)[C@@H]2OC)C1` [Example 88, (3R,4S,5S,6R)-5-methoxy-4-((2R,3R)-2-methyl-3-(3-methylbut-2-enyl)oxiran-2-yl)-1-oxaspiro[2.5]octan-6-yl 3-(3-(2-(diethylamino)ethylamino)-3-oxopropyl)azetidine-1-carboxylate formate]: in test [2] (mouse, in vivo), the “DIO Mouse 10-day weight loss vs vehicle” value is on record as 9%. Besides, the “DIO Rat 11-day weight loss vs vehicle” value in test [3] (rat, in vivo) came to 4.4%. Moreover, the EC50 in test [4] (setting [5]) fell in the range of 0.3 to 1.3 nM.
Regarding `CO[C@@H]1[C@H](OC(=O)N2CC(CCN3CC(O)C3)C2)CC[C@]2(CO2)[C@H]1[C@@]1(C)O[C@@H]1CC=C(C)C` [Example 6, (3R,4S,5S,6R)-5-methoxy-4-((2R,3R)-2-methyl-3-(3-methylbut-2-enyl)oxiran-2-yl)-1-oxaspiro[2.5]octan-6-yl 3-(2-(3-hydroxyazetidin-1-yl)ethyl)azetidine-1-carboxylate formate], the “DIO Mouse 10-day weight loss vs vehicle” value in test [2] (mouse, in vivo) worked out at 11.8%. In test [3] (rat, in vivo, formate), the “DIO Rat 11-day weight loss vs vehicle” value was 0.8% and 4.6%. Further, the EC50 in test [4] (setting [5]) was < 0.3 nM.
For `CO[C@@H]1[C@H](OC(=O)N2CC(CCN3CC4C(C3)C4(F)F)C2)CC[C@]2(CO2)[C@H]1[C@@]1(C)O[C@@H]1CC=C(C)C` (stereo partly drawn) [Example 22, (3R,4S,5S,6R)-5-methoxy-4-((2R,3R)-2-methyl-3-(3-methylbut-2-enyl)oxiran-2-yl)-1-oxaspiro[2.5]octan-6-yl 3-(2-(6,6-difluoro-3-azabicyclo[3.1.0]hexan-3-yl)ethyl)azetidine-1-carboxylate formate], the “DIO Mouse 10-day weight loss vs vehicle” value in test [2] (mouse, in vivo) amounted to 14%. In test [4] (setting [5]), the EC50 fell in the range of 0.3 to 1.3 nM.
As for `CO[C@@H]1[C@H](OC(=O)N2CC(CCN3CCC(O)CC3)C2)CC[C@]2(CO2)[C@H]1[C@@]1(C)O[C@@H]1CC=C(C)C` [Example 7, (3R,4S,5S,6R)-5-methoxy-4-((2R,3R)-2-methyl-3-(3-methylbut-2-en-1-yl)oxiran-2-yl)-1-oxaspiro[2.5]octan-6-yl 3-(2-(4-hydroxypiperidin-1-yl)ethyl)azetidine-1-carboxylate], in test [2] (DIO mouse, 0.3 mpk sc once a day, 10 days), the “DIO Mouse 10-day weight loss vs vehicle” value came out at 1.8%.
With `CCN(CC)CCC1CN(C(=O)O[C@@H]2CC[C@]3(CO3)[C@@H]([C@@]3(C)O[C@@H]3CC=C(C)C)[C@@H]2OC)C1` [Example 103, (3R,4S,5S,6R)-5-methoxy-4-((2R,3R)-2-methyl-3-(3-methylbut-2-enyl)oxiran-2-yl)-1-oxaspiro[2.5]octan-6-yl 3-(2-(diethylamino)ethyl)azetidine-1-carboxylate], in test [4] (setting [6]), the EC50 was < 0.3 nM.
